Reference: patent publication US6436984B1, “Melatonin derivatives and medicine containing same” (Centre National de la Recherche Scientifique (CNRS), priority 1998, dated 2002)
pIC50: −log10 of the molar value.

Tested on: P 815 line
Test: cell proliferation of the P 815 line (tritiated thymidine incorporation)
Format: cell-based
Conditions: P 815 cells, 7 hours incubation in RPMI medium with phenol red, tritiated thymidine added after 3 hours, radioactivity associated with the DNA
Description: The biological activity of the derivative of formula I was compared with dipropylenetriamine NONOate (A), melatonin (B) and a dipropylenetriamine NONOate and melatonin (1/2) mixture (C) on the cell preparation of the cell proliferation of the P 815 line.
The cells are incubated with the products in RPMI medium with phenol red for 7 hours. Tritiated thymidine is added after incubating for 3 hours.
The results are shown on the curve in the single appended FIGURE, where the concentration of product (μM) is carried on the abscissa and the radioactivity associated with the DNA (cpm) is carried on the ordinate.

NCCCN(CCCN)/[N+]([O-])=N/O [dipropylenetriamine NONOate (A), dipropylenetriamine NONOate]
pIC50: 3.82

COc1ccc2c(c1)c(CCNC(C)=O)cn2N=O [compound of formula I, N1-nitrosomelatonin]
pIC50 (Mus musculus, P815): 3.55
